The text below walks through data of patent US6586461B1, “Prenyl transferase inhibitors” (Wayne State University, priority 1998, dated 2003).

For orientation: IC50 means the midpoint of a concentration-inhibition curve.

“Also recorded” adds a separate entry of the source.

For assay [1], the system named is HPAC (human pancreatic adenocarcinoma cells). Kind of assay: Proliferation of HPAC cells, Trypan Blue exclusion. The class given is cell-based. As to conditions: 48 hours. As for the experimental part:
The malignant human cell line HPAC (human pancreatic adenocarcinoma cells) was used in this study. The cells were seeded at a concentration of 2×10^5/ml in 24 well culture plate (Costar, Cambridge, Mass). […] Varying amounts of the stock solutions were then used to treat the HPAC cells. The final concentration of the farnesol analogs in the culture plate wells ranged from 0 nM (ethanol-treated control) to 500 nM. The plate was then incubated at 37° C. under a 5% CO2-humidified atmosphere for 48 hours. The total viable cells from each well were determined by Trypan Blue (0.4%) exclusion (Gibco, N.Y.) followed by cell counting.

The subject of assay [2] is NIH 3T3 fibroblasts transfected with H-Ras(61 L) [H-Ras-F]. Nature of the assay: Soft agar anchorage-independent growth, H-Ras-F cells. It is filed as cell-based. Conditions: for IC50: soft agar, 2 weeks, read-out: Mean IC50 (±S.E.) H-Ras-F. As for the experimental part:
(§1) Presumably, the non-polar alcohols pass through the cell membrane and are then diphosphorylated by an as yet uncharacterized kinase to FPP or GGPP.
(§2) The 3-substituted analogs were evaluated as inhibitors of the growth of ras-transformed cells by comparing their relative degree of activity against an isogenic panel of transformed cell lines, comprised of NIH 3T3 fibroblasts transfected with either H-Ras(61 L) [H-Ras-F], H-Ras(61 L)CVLL [H-Ras-GG], or a transforming form of c-raf [Raf]. The H-Ras-F, H-Ras-GG, and raf transformed NIH3T3 cell lines have been previously described in Cox, et al., Molecular and Cellular Biology, Vol. 12, No. 6, pages 2606-2615 (1992). The cells were grown prior to plating in Dulbecco's modified Eagle medium supplemented with 10% calf serum and 1% antibiotic/antimycotic at 37° C. and 10% CO2. Experiments were carried out in 6-well dishes in a two layer agar system (0.6% bottom layer and 0.3% top layer). Cells were incorporated into the top layer along with varying concentrations of the compound prepared in ethanol. Compound addition occurred only at the time the cells were seeded. Subsequent incubation was at 37° C. with 10% CO2 for 2 weeks. Colonies were stained with 0.5 ml/well of 1 mg/ml p-iodonitrotetrazolium violet (Sigma) for 24 hours prior to quantitation by image analysis.

For assay [3], the system named is NIH 3T3 fibroblasts transfected with H-Ras(61 L)CVLL [H-Ras-GG]. Nature of the assay: Soft agar anchorage-independent growth, H-Ras-GG cells. The class given is cell-based. Conditions: 2 weeks, read-out: Mean IC50 (±S.E.) H-Ras-GG. As for the experimental part:
as §1, §2

A further assay has as its system H-Ras in H-Ras-F cells. Kind of assay: Subcellular fractionation / Western blot of Ras in lovastatin-treated H-Ras-F cells. The class given is cell-based. As to conditions: for Subcellular location of H-Ras (membrane vs cytosol): H-Ras-F cells, 25 μM lovastatin 24 h, then analog 24 h. As for the experimental part: Following an additional 24 h incubation period, the cells were harvested, lysed and the membranes (M) separated from the cytosol (C). After solubilization of the membrane fraction, Ras protein was immunoprecipitated from both the membrane and cytosolic fractions by the addition of the Y13-259 antibody (OP04 from Oncogene Science). The presence of Ras protein in each fraction was analyzed by Western transfer techniques. Incubation with the primary antibody (pan-ras Ab-2 from Oncogene Science) and an anti-mouse HRP conjugate secondary antibody (Amersham) was employed for detection of the ras protein. Blots were developed using Enhanced Chemiluminescence techniques (Amersham). The technique is described in detail by Scholten, et al., Bioorg. Med. Chem., Vol. 4, pages 1537-1543 (1992).
The results are shown in FIGS. 6 and 7 which are Western blots of the H-Ras-F and H-Ras-GG experiments, respectively. H-Ras-F cells were treated with lovastatin in order to block the mevalonate pathway, prevent the formation of FPP and GGPP, and thus, inhibit protein prenylation.
Background: Immunoblotting shows a protein as a band on a membrane.

In a further assay the test system is H-Ras-F cells. Nature of the assay: Cell morphology of lovastatin-treated H-Ras-F cells. The class given is cell-based. As to conditions: 25 μM lovastatin 24 h, then analog 24 h. As for the experimental part: It has been well established that levels of lovastatin that completely block the mevalonate pathway result in cell cycle blockade, significant cytotoxicity, and a sharp change in cell appearance to a rounded morphology. The effects of lovastatin on the cell morphology of H-Ras-F and H-Ras-GG cells treated with FPP, GGPP, 3-vFPP, 3-vGGPP, 3-alFPP, and 3-alGGPP were photographed and the results are shown on FIG. 9 (H-Ras-F) and 8 (H-Ras-GG), respectively. The H-Ras-F and H-Ras-GG cells were grown in six-well plates to 70-80% confluence. After treating the cells with lovastatin (25 μM) for 24 hour, the indicated FPP or GGPP analogs (re-suspended in media) were added directly to the cell media. Photographs were taken after an additional 24 hour incubation period.

The target of assay [4] is recombinant mFTase (affinity purified rat FPTase) (Rattus norvegicus, UniProt Q02293+Q04631). Nature of the assay: FTase scintillation proximity assay. Conditions: for IC50: recombinant mFTase, tritiated FPP 0.12 μM, peptide 0.1 μM; for FTase/GGTase: selectivity mFTase against mGGTase I; for Ki: varying concentrations of tritiated FPP, read-out: K1 FTase. The class given is biochemical. As for the experimental part:
(§3) The method is described in detail in Yokama, et al., J. Biol. Chem., Vol. 272, No. 7, pages 3944-3952 (February 1997). The FTase, tritiated FPP, and the peptide were incubated at 37° C. for 30 minutes in a buffer. After incubation, a stop reagent and streptavidin beads (Amersham) were added. The radioactive product was counted on a Wallac Microbeta 1450 scintillation counter. The kinetic fits were derived from a nonlinear least squares computer fit of the data. The Ki values were determined using the same assay system with varying concentrations of tritiated FPP.
A general note: In a scintillation proximity assay essentially only radioactivity close to the scintillant gives light.

The target of another assay is recombinant mGGTase I (Homo sapiens, UniProt P49354+P53609). Nature of the assay: GGTase I scintillation proximity assay. It is filed as biochemical. As to conditions: tritiated GGPP. As for the experimental part: as §3
GGTase I values were determined in a similar manner using recombinant mGGTase I, tritiated GGPP, and the peptide Biotin-Aha-Thr-Lys-Cys-Val-Ile-Leu-OH.

Assay [5] deals with T1, recombinant yeast FTase (yFTase) (Saccharomyces cerevisiae, UniProt P22007+P29703).
T1 sequence (P22007 1-431): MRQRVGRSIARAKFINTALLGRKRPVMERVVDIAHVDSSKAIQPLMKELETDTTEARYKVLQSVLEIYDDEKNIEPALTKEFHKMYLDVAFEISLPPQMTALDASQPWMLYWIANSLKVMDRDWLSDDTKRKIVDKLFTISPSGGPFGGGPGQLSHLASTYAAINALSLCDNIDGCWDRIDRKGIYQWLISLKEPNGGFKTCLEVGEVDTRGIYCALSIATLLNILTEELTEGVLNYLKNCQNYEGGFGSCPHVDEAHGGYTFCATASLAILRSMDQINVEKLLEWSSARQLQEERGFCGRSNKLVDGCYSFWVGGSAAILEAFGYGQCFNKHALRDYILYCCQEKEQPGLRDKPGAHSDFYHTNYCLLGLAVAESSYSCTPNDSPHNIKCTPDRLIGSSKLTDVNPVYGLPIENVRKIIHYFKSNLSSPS
T1 sequence (P29703 1-316): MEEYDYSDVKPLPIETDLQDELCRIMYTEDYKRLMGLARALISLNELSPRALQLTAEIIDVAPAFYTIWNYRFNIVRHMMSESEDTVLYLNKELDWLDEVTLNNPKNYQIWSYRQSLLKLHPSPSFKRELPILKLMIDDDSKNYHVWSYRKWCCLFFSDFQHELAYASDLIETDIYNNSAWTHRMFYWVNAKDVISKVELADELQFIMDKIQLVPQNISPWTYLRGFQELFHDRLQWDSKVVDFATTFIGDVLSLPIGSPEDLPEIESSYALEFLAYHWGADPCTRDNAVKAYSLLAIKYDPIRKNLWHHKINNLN
Conditions: cited from earlier work.

With “3-Allyl 7,11-dimethyldodeca-2(Z),6(E),10-trien-1-ol [3-ally Farnesol]”, the “Effect on HPAC cells at 100 nM” value in assay [1] (100 nM) is “cytostasis”. Moreover, the “Viable HPAC cell count at 100 nM” value in assay [1] (100 nM, seeded 2×10^5/ml, control well 2.2×10^6 cells) is recorded as ~2×10^5 /well. In assay [1] (500 nM, listed as 3-allylfarnesol), the “Effect on HPAC cells at 500 nM” value is “potently cytotoxic; also recorded: complete cytotoxicity”.
On to `CCC(=CCO)CCC=C(C)CCC=C(C)C` [3-ethyl Farnesol], for which the IC50 in assay [2] and in assay [3] was greater than 25000 nM each time.
Take `CC(C)=CCCC(C)=CCCC(=CCO)c1ccccc1` [3-phenyl Farnesol]: the IC50 in assay [2] and in assay [3] was greater than 25000 nM in each case.
Consider `CC(C)=CCC/C(C)=C/CC/C(=C/CO)C(C)(C)C` [3-tert-butylfarnesol, 3-tert-Butyl-7,11-dimethyldodeca-2(Z),6(E),10-trien-1-ol], for which the “Cellular activity (transformed cell growth, soft agar), in words” value in assay [2] (transformed NIH3T3 cell lines) is “inactive in cells”.
As to `C=CC/C(=C\COP(=O)(O)OP(=O)(O)O)CC/C=C(\C)CCC=C(C)C` [Compound 3-alFPP, 3-Allyl-7,11-dimethyldodeca-2(Z),6(E),10-triene 1-diphosphate], in the assay with H-Ras in H-Ras-F cells, the “Subcellular location of H-Ras (membrane vs cytosol)” value was “virtually all of the H-Ras being found in the cytosol”. Further, in the assay on H-Ras-F cells, the “Reversal of rounded morphology of lovastatin-treated H-Ras-F cells” value is recorded as “not able to reverse the morphology”. Also, in assay [4], the “Mode of inhibition of mFTase versus FPP” value is reported as “competitive inhibitors”, the 50% inhibitory concentration (IC50) came to 189 nM, the FTase/GGTase was greater than 530 and the Ki is 31 nM.
As for `CC/C(=C\COP(=O)(O)OP(=O)(O)O)CC/C=C(\C)CCC=C(C)C` [Compound 3-etFPP], in assay [4], the IC50 turned out to be 215 nM and the FTase/GGTase is given as greater than 460.
The corresponding values for `CC(C)=CCC/C(C)=C/CC/C(=C/COP(=O)(O)OP(=O)(O)O)c1ccccc1` [Compound 3-phFPP] are 299 nM and greater than 340.
In the case of `CC(C)=CCC/C(C)=C/CC/C(=C/COP(=O)(O)OP(=O)(O)O)C(C)(C)C` [Compound 3-tbFPP, 3-tert-butyl-2(Z),6(E),10-triene diphosphate], on recombinant mGGTase I, the half-maximal inhibitory concentration (IC50) was roughly 50000 nM. In assay [4], the “Mode of inhibition of mFTase versus FPP” value is given as “competitive inhibitors”, the IC50 came to 31 nM, the FTase/GGTase entry is “˜1600” and the Ki turned out to be 8 nM. Moreover, in assay [5], the “Inhibition of yFTase” value is “potent competitive inhibitor” and the “Substrate activity for yFTase” value is listed as “exceptionally poor substrate”.
Regarding `C=C/C(=C\COP(=O)(O)OP(=O)(O)O)CC/C=C(\C)CCC=C(C)C` [Compound 3-vFPP, 3-Vinyl-7,11-dimethyldodeca-2(Z),6(E),10-triene 1-Diphosphate], the concentration for half-maximal inhibition (IC50) on recombinant mGGTase I is roughly 100000 nM. Moreover, in the assay on H-Ras in H-Ras-F cells, the “Blocking of prenylation of Ras proteins in H-Ras-F cells” value is reported as “neither 3-vinylfarnesol nor 3-vFPP blocked the prenylation of Ras proteins” and the “Subcellular location of H-Ras (membrane vs cytosol)” value is “virtually complete localization of the H-Ras protein in the membrane fraction (M)”. For the same compound, the “Reversal of rounded morphology of lovastatin-treated H-Ras-F cells” value in the assay on H-Ras-F cells is reported as “modest ability to do so”. In assay [4], the “Mode of inhibition of mFTase versus FPP” value is on record as “competitive inhibitors”, the IC50 stood at 173 nM, the FTase/GGTase result was “˜600” and the Ki came to 96 nM. In addition, the “Substrate activity for yFTase” value in assay [5] was “poor alternative substrate”.
`CC(C)=CCC/C(C)=C/CC/C(C)=C/CC/C(C)=C/COP(=O)(O)OP(=O)(O)O` [GGPP, geranylgeranyl diphosphate, reference compound]: the “Reversal of rounded morphology of lovastatin-treated H-Ras-F cells” value in the assay with H-Ras-F cells is reported as “can be reversed”.
Regarding `CC(C)=CCC/C(C)=C/CC/C(C)=C/CC/C(C)=C/CO` [geranylgeraniol, reference compound], the “Reversal of rounded morphology of lovastatin-treated H-Ras-F cells” value in the assay on H-Ras-F cells is “can be reversed”.
On to `CC[C@H](C)C(=O)O[C@H]1C[C@@H](C)C=C2C=C[C@H](C)[C@H](CC[C@@H]3C[C@@H](O)CC(=O)O3)[C@H]21` [lovastatin, reference compound], for which the “Subcellular location of H-Ras (membrane vs cytosol)” value in the assay with H-Ras in H-Ras-F cells is listed as “shift of the majority of H-Ras from the membrane fraction (M) to the cytosol (C)”.
